Data on nine compounds can be found in patent publication US8580809B2, “Filamin A-binding anti-inflammatory analgesic” (Pain Therapeutics, Inc., priority 2009, dated 2013).

In one assay the target is T1, mu opiate receptor (MOR) (Rattus norvegicus, UniProt P33535).
T1 construct: from tissue; host or cells: rat striatal membrane preparation
As to the kind of experiment: MOR agonist activity using [35S]GTPγS binding assay in striatal membranes. The note with it: for MOR agonist activity, [35S]GTPγS binding to Gαo, FLNA-binding compound as agonist 0.1 μM: 0.1 μM compound; for MOR agonist activity, [35S]GTPγS binding to Gαo, FLNA-binding compound as agonist 0.1 μM / MOR agonist activity, [35S]GTPγS binding to Gαo, FLNA-binding compound as agonist 1 μM: striatal membranes; for MOR agonist activity, [35S]GTPγS binding to Gαo, 1 μM + BFNA: 1 μM compound + 1 μM β-funaltrexamine; for MOR agonist activity, [35S]GTPγS binding to Gαo, FLNA-binding compound as agonist 1 μM: 1 μM compound. Format: biochemical. Here is the method: To assess the mu opiate receptor (MOR) agonist activity of positive compounds from the FLNA screening, compounds were tested in a [^35S]GTPγS binding assay using striatal membranes.
Striatal tissue was homogenized in 10 volumes of ice cold 25 mM HEPES buffer, pH 7.4, which contained 1 mM EGTA, 100 mM sucrose, 50 μg/ml leupeptin, 0.04 mM PMSF, 2 μg/ml soybean trypsin inhibitor and 0.2% 2-mercaptoethanol. The homogenates were centrifuged at 800×g for 5 minutes and the supernatants were centrifuged at 49,000×g for 20 minutes.
The resultant striatal membrane preparation (200 μg) was admixed and maintained (incubated) at 30° C. for 5 minutes in reaction buffer as above that additionally contained 1 mM MgCl2 and 0.5 nM [^35S]GTPγS (0.1 μCi/assay, PerkinElmer Life and Analytical Sciences) in a total volume of 250 μl and continued for 5 minutes in the absence or presence of 0.1-10 μM of an assayed compound of interest. The reaction was terminated by dilution with 750 μl of ice-cold reaction buffer that contained 20 mM MgCl2 and 1 mM EGTA and immediate centrifugation at 16,000×g for 5 minutes.
The resulting pellet was solubilized by sonicating for 10 seconds in 0.5 ml of immunoprecipitation buffer containing 0.5% digitonin, 0.2% sodium cholate and 0.5% NP-40. Normal rabbit serum (1 μl) was added to 1 ml of lysate and incubated at 25° C. for 30 minutes. Nonspecific immune complexes were removed by incubation with 25 μl of protein A/G-conjugated agarose beads at 25° C. for 30 minutes followed by centrifugation at 5,000×g at 4° C. for 5 minutes. The supernatant was divided and separately incubated at 25° C. for 30 minutes with antibodies raised against Gαo proteins (1:1,000 dilutions).
The immunocomplexes so formed were collected by incubation at 25° C. for 30 minutes with 40 μl of agarose-conjugated protein A/G beads and centrifugation at 5,000×g at 4° C. for 5 minutes. The pellet was washed and suspended in buffer containing 50 mM Tris-HCl, pH 8.0, and 1% NP-40. The radioactivity in the suspension was determined by liquid scintillation spectrometry. […] DAMGO (H-Tyr-D-Ala-Gly-N-MePhe-Gly-OH; 1 or 10 μM) was used as a positive control.

A short description of assay [1]: Mouse hot-water tail-flick test. Format: in vivo. To be noted: oral, 56 mg/kg, at about 10 minutes. The method, then: The mouse “tail flick” test was used to assay the relative antinociceptive activity of compositions containing a compound to be assayed. This assay was substantially that disclosed by Xie et al., 2005 J. Neurosci 25:409-416.
The mouse hot-water tail-flick test was performed by placing the distal third of the tail in a water bath maintained at 52° C. The latency until tail withdrawal from the bath was determined and compared among the treatments. A 10 second cutoff was used to avoid tissue damage. Data are converted to percentage of antinociception by the following formula: (response latency−baseline latency)/(cutoff−baseline latency)×100 to generate dose-response curves. […] Relative potency was determined as a ratio of the A50 values.
To assess tolerance to the antinociceptive effect, the compound was administered twice daily for 7 days at an A90 dose (dose that results in a 90% antinociceptive effect in the 52° C. warm-water tail-flick test), and the tail-flick test was performed daily after the a.m. dose.

T1 sequence (P33535 whole entry): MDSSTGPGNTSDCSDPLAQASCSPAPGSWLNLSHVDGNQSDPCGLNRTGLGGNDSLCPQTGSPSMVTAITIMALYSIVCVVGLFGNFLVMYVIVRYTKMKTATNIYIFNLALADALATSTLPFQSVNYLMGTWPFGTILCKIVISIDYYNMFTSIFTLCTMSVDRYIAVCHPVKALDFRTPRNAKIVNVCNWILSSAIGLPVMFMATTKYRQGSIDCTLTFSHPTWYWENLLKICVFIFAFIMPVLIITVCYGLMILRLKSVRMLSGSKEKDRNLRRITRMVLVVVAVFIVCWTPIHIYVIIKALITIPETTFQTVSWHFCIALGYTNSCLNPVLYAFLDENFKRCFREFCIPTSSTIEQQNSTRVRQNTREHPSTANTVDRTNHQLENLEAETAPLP

As to `N#Cc1ccccc1S(=O)(=O)N1CCC2(CC1)OCCN2S(=O)(=O)c1ccccc1C#N` [Compound C0004], on mu opiate receptor (MOR), the “MOR agonist activity, [35S]GTPγS binding to Gαo, FLNA-binding compound as agonist 0.1 μM” value (“MOR agonist activity … as agonist 0.1 μM” for short) was 122.0%; the “MOR agonist activity, [35S]GTPγS binding to Gαo, 1 μM + BFNA” value (“MOR agonist activity … 1 μM + BFNA” for short) stood at 65.8%; the “MOR agonist activity, [35S]GTPγS binding to Gαo, FLNA-binding compound as agonist 1 μM” value (shortened to “MOR agonist activity … as agonist 1 μM”) is 228.4%.
Take `Cc1ccccc1S(=O)(=O)N1CCC2(CC1)OCCN2S(=O)(=O)c1ccccc1C` [Compound C0015]: at mu opiate receptor (MOR), the “MOR agonist activity … as agonist 0.1 μM” value was found to be 138.7%; the “MOR agonist activity … 1 μM + BFNA” value was determined as 126.8%; the “MOR agonist activity … as agonist 1 μM” value amounted to 204.7%.
As to `O=S(=O)(c1ccc2ccccc2c1)N1CCC2(CC1)OCCN2S(=O)(=O)c1ccc2ccccc2c1` [Compound C0140M], at mu opiate receptor (MOR), the “MOR agonist activity … as agonist 0.1 μM” value was determined as 126.1%; the “MOR agonist activity … 1 μM + BFNA” value amounted to 83.0%; the “MOR agonist activity … as agonist 1 μM” value is 215.4%.
Taken in the same sequence, the figures for `O=S(=O)(c1ccc(Br)c(C(F)(F)F)c1)N1CCC2(CC1)OCCN2S(=O)(=O)c1ccc(Br)c(C(F)(F)F)c1` [Compound C0077] were 192.7%, 136.7% and 265.4%.
Consider `CS(=O)(=O)c1ccc(S(=O)(=O)N2CCC3(CC2)OCCN3S(=O)(=O)c2ccc(S(C)(=O)=O)cc2)cc1` [Compound C0009], for which, at mu opiate receptor (MOR), the “MOR agonist activity … as agonist 0.1 μM” value is given as 146.3%; the “MOR agonist activity … 1 μM + BFNA” value came to 26.4%; the “MOR agonist activity … as agonist 1 μM” value is recorded as 256.2%. Moreover, the “mean maximum antinociception amount” value in assay [1] is “about 50%”.
Turning to `COc1ccc(S(=O)(=O)N2CCCC3(C2)OCCN3S(=O)(=O)c2ccc(OC)cc2)cc1` (stereo not shown) [Compound C0145M], on mu opiate receptor (MOR), the “MOR agonist activity … as agonist 0.1 μM” value was found to be 193.0%; the “MOR agonist activity … 1 μM + BFNA” value is 87.0%; the “MOR agonist activity … as agonist 1 μM” value is recorded as 289.2%.
On to `CC(C)c1ccc(S(=O)(=O)N2CCC3(CC2)OCCN3S(=O)(=O)c2ccc(C(C)C)cc2)cc1` [Compound C0007], for which, at mu opiate receptor (MOR), the “MOR agonist activity … as agonist 0.1 μM” value worked out at 79.1%; the “MOR agonist activity … 1 μM + BFNA” value is listed as 10.9%; the “MOR agonist activity … as agonist 1 μM” value is listed as 195.0%.
As to `O=S(=O)(c1cccc(OC(F)(F)F)c1)N1CCC2(CC1)OCCN2S(=O)(=O)c1cccc(OC(F)(F)F)c1` [Compound C0005], at mu opiate receptor (MOR), the “MOR agonist activity … as agonist 0.1 μM” value is given as 180.4%; the “MOR agonist activity … 1 μM + BFNA” value turned out to be 166.4%; the “MOR agonist activity … as agonist 1 μM” value was 227.2%.
Taken in the same sequence, the figures for `Cc1ccc(S(=O)(=O)N2CCC3(CC2)OCCN3S(=O)(=O)c2ccc(C)cc2)cc1` [Compound C0001] were 129.3%, 33.9% and 184.3%.
